“And” between values parts separate entries of the source, which are not always exact repeats. Equal values may be shown once. Where a name gives a salt, the structure may show the parent alone.
System: Aβ(1-42)
Test: Cell-based γ-secretase assay, Aβ(42) detection
Design: species or system Human
Conditions: Homo sapiens, SH-SY5Y, SH-SY5Y cells overexpressing SPA4CT; two values in a cell = individual enantiomers; read-out: Aβ42 IC50
Protocol: Cell-Based γ-Secretase Assay
Human SH-SY5Y neuroblastoma cells overexpressing the direct γ-secretase substrate SPA4CT were induced with sodium butyrate (10 mM) for 4 hours prior to plating. Cells were plated at 35,000 cells/well/100 μl in 96-well plates in phenol red-free MEM/10% FBS, 50 mM HEPES, 1% Glutamine and incubated for 2 hrs at 37° C., 5% CO2.
Compounds for testing were diluted into Me2SO to give a ten point dose-response curve. Typically 10 μl of these diluted compounds in Me2SO were further diluted into 182 μl dilution buffer (phenol red-free MEM/10% FBS, 50 mM HEPES, 1% Glutamine) and 10 μl of each dilution was added to the cells in 96-well plates (yielding a final Me2SO concentration of 0.5%). Appropriate vehicle and inhibitor controls were used to determine the window of the assay.
After incubation overnight at 37° C., 5% CO2, 25 μl and 50 μl media were transferred into a standard Meso avidin-coated 96-well plate for detection of Aβ(40) and Aβ(42) peptides, respectively. 25 μl Meso Assay buffer (PBS, 2% BSA, 0.2% Tween-20) was added to the Aβ(40) wells followed by the addition of 25 μl of the respective antibody premixes to the wells:
Aβ(42) premix: 1 μg/ml ruthenylated G2-11 antibody, 4 μg/ml; and biotinylated 4G8 antibody diluted in Origen buffer
(Biotinylated 4G8 antibody supplied by Signet Pathology Ltd; G2-10 and G2-11 antibodies supplied by Chemicon)
After overnight incubation of the assay plates on a shaker at 4° C., the Meso Scale Sector 6000 Imager was calibrated according to the manufacturer's instructions. After washing the plates 3 times with 150 μl of PBS per well, 150 μl Meso Scale Discovery read buffer was added to each well and the plates were read on the Sector 6000 Imager according to the manufacturer's instructions.
LD50 and IC50 values for inhibition of Aβ(40) and Aβ(42) were calculated by nonlinear regression fit analysis using the appropriate software (eg. Excel fit). The total signal and the background were defined by the corresponding Me2SO and inhibitor controls.

Row | SMILES | IC50 [µM]
1 | COc1cc(-c2cn(CC(=O)N(c3ccccc3)C3CCCCC3)nn2)ccc1-n1cnc(C)c1 [Example 1, N-cyclohexyl-2-{4-[3-methoxy-4-(4-methyl-imidazol-1-yl)-phenyl]-1,2,3-triazol-1-yl}-N-phenyl-acetamide] | 0.616
2 | COc1cc(-c2cn(CSc3ccccc3)nn2)ccc1-n1cnc(C)c1 [Example 4, 4-[3-Methoxy-4-(4-methyl-imidazol-1-yl)-phenyl]-1-phenylsulfanylmethyl-1H-[1,2,3]triazole trifluoroacetate salt] | 0.529
3 | COc1cc(-c2cn(C(C)c3ccccc3)nn2)ccc1-n1cnc(C)c1 (stereo not shown) [Example 5, 4-[3-Methoxy-4-(4-methyl-imidazol-1-yl)-phenyl]-1-(1-phenyl-ethyl)-1H-[1,2,3]triazole trifluoroacetate salt] | 2.66
4 | COc1cc(-c2cn(C(F)(F)c3ccc(C(F)F)cc3)nn2)ccc1-n1cnc(C)c1 [Example 7, 1-[(4-Difluoromethyl-phenyl)-difluoro-methyl]-4-[3-methoxy-4-(4-methyl-imidazol-1-yl)-phenyl]-1H-[1,2,3]triazole trifluoracetate salt] | 2.25
5 | COc1cc(-c2cn(CC(=O)N3CCCC4CCCCC43)nn2)ccc1-n1cnc(C)c1 (stereo not shown) [Example 8, 2-{4-[3-Methoxy-4-(4-methyl-imidazol-1-yl)-phenyl]-[1,2,3]triazol-1-yl}-1-(octahydro-quinolin-1-yl)-ethanone trifluoroacetate salt] | 1.07
6 | COc1cc(-c2cn(C(F)(F)C(=O)NCc3ccc(F)cc3)nn2)ccc1-n1cnc(C)c1 [Example 9, 2,2-Difluoro-N-(4-fluoro-benzyl)-2-{4-[3-methoxy-4-(4-methyl-imidazol-1-yl)-phenyl]-[1,2,3]triazol-1-yl}-acetamide trifluoroacetate salt] | 0.933
7 | COc1cc(-c2cn(CC(=O)N(CC(F)(F)F)c3ccc(F)c(Cl)c3)nn2)ccc1-n1cnc(C)c1 [Example 12, N-(3-chloro-4-fluorophenyl)-2-{4-[3-methoxy-4-(4-methyl-1H-imidazol-1-yl)phenyl]-1H-1,2,3-triazol-1-yl}-N-(2,2,2-trifluoroethyl)acetamide trifluoroacetate salt] | 0.084

Same assay, conditions: Homo sapiens, SH-SY5Y, read-out: Aβ42 IC50

Row | SMILES | IC50 [µM]
8 | COc1cc(-c2cn(Cc3ccc(C(C)(C)C)cc3)nn2)ccc1-n1cnc(C)c1 [Example 3, 1-(4-tert-butyl-benzyl)-4-[3-methoxy-4-(4-methyl-imidazole-1-yl)-phenyl]-1H-[1,2,3]triazole trifluoroacetate salt] | 0.31
9 | COc1cc(-c2cn(Cc3ccc(-c4nc5ccccc5o4)cc3)nn2)ccc1-n1cnc(C)c1 [Example 6, 2-(4-{4-[3-Methoxy-4-(4-methyl-imidazol-1-yl)-phenyl]-[1,2,3]triazol-1-ylmethyl}-phenyl)-benzooxazole trifluoroacetate salt] | 0.177

Same assay, conditions: SH-SY5Y cells overexpressing SPA4CT; two values in a cell = individual enantiomers; read-out: Aβ42 IC50

Row | SMILES | IC50
10 | COc1cc(-c2cn(C3CCc4ccccc4NC3=O)nn2)ccc1-n1cnc(C)c1 (racemic) [Example 2, (R) and (S)-3-{4-[3-methoxy-4-(4-methyl-imidazol-1-yl)-phenyl]-1,2,3-triazol-1-yl}-1,3,4,5-tetrahydro-1-benzazepin-2-one] | 0.386 µM and 1.33 µM

Reference: US8242150B2, “Triazole derivatives for treating alzheimer'S disease and related conditions” (Merck Sharp & Dohme Corp., priority 2007, dated 2012)
